In patent US20190374525A1, “TREATMENT OF DIABETES AND ASSOCIATED METABOLIC CONDITIONS WITH EPIGENETIC MODULATORS” (Temple Otorongo LLC, priority 2017, published 2019):

What was measured:
Assay type in all cases: in vivo
[1] = body weight in mouse model of severe type 2 diabetes and obesity; conditions: after 9 days of treatment; FIG. 8
Experimental: (§1) Fed blood glucose levels were measured over a period of 28 days. Fasting glucose levels were measured on days 19, 29, and 30. Glucose clearance was measured using the glucose tolerance test on days 29 and 30. Body weight was also measured as compounds may regulate the expression of genes that are involved in obesity.

[2] = tested on: leptin receptor deficient transgenic mouse model (db/db); assay: blood glucose levels in mouse model of severe type 2 diabetes and obesity; conditions: for blood glucose levels: mouse model of severe type 2 diabetes and obesity, FIG. 5 (Formula (I), 11 days), FIG. 7 (Formula (II), 19 days or 29-30 days)
Experimental: as §1

[3] = tested on: leptin receptor deficient transgenic mouse model (db/db); assay: liver enzymes (ALT and AST) in blood serum, mouse model of Type 2 diabetes and severe obesity; conditions: after 29-30 days; FIG. 11

CN(C)c1ccc(C(=O)NCCCCCC(=O)NO)cc1 [Formula (III)]
body weight [1]: significantly decrease body weight

O=C(O)c1ccnc(C(=O)O)c1 [Formula (I), 2,4-pyridinedicarboxylic acid]
fed and fasting glucose levels ([2]; after 11 days of treatment, FIG. 5): decrease in fed and fasting glucose levels
blood glucose levels [2]: significantly decrease blood glucose levels
lowering of enzymes (ALT and AST) associated with liver disease measured in blood serum [3]: 68%

O=C(O)CCNc1cc(N2CCc3ccccc3CC2)nc(-c2ccccn2)n1 [Formula (II)]
blood glucose levels [2]: significantly decrease blood glucose levels
